Assay results from ChEMBL document CHEMBL1147850, “Conversion of some 2(3H)-furanones bearing a pyrazolyl group into other heterocyclic systems with a study of their antiviral activity” (2007).

Assays:
Format in all cases: functional
Set-up in all cases: scale not given: the % may be the effect or the level left
Human alphaherpesvirus 1 [1] = test: Antiviral activity against HSV1 in Vero cells assessed as plaque infectivity reduction at 10 ug/ml
Hepatovirus A [2] = test: Antiviral activity against HAV in Vero cells assessed as plaque infectivity reduction at 10 ug/ml
Human alphaherpesvirus 1 [3] = test: Antiviral activity against HSV1 in Vero cells assessed as plaque infectivity reduction at 20 ug/ml
Hepatovirus A [4] = test: Antiviral activity against HAV in Vero cells assessed as plaque infectivity reduction at 20 ug/ml

| Compound | Activity (Human alphaherpesvirus 1 [1]) | Activity (Hepatovirus A [2]) | Activity (Human alphaherpesvirus 1 [3]) | Activity (Hepatovirus A [4]) |
| --- | --- | --- | --- | --- |
| O=C(NNC(=O)c1ccccc1)/C(=C/c1cn(-c2ccccc2)nc1-c1ccccc1)CC(=O)c1ccc(Cl)cc1 | 10% | 30% | 38% | 60% |
| NNC(=O)/C(=C/c1cn(-c2ccccc2)nc1-c1ccccc1)CC(=O)c1ccc(Cl)cc1 | 26% | 20% | 42.8% | 30% |
| O=C1OC(c2ccc(Cl)cc2)=C/C1=C\c1cn(-c2ccccc2)nc1-c1ccccc1 | 0% | 40% | 0% | 60% |
| COc1ccc(-c2cc(Cc3cn(-c4ccccc4)nc3-c3ccccc3)c(=O)[nH]n2)cc1 | 21% | 20% | 47% | 50% |
| O=C(C/C(=C\c1cn(-c2ccccc2)nc1-c1ccccc1)c1n[nH]c(=S)[nH]1)c1ccc(Cl)cc1 | 0% | 40% | 38% | 50% |
| O=C(C/C(=C\c1cn(-c2ccccc2)nc1-c1ccccc1)c1n[nH]c(=S)o1)c1ccc(Cl)cc1 | 14% | 0% | 45% | 0% |
| NC(=O)NNC(=O)/C(=C/c1cn(-c2ccccc2)nc1-c1ccccc1)CC(=O)c1ccc(Cl)cc1 | 42.8% | 0% | 52% | 20% |
| O=C(C/C(=C\c1cn(-c2ccccc2)nc1-c1ccccc1)c1n[nH]c(=O)[nH]1)c1ccc(Cl)cc1 | 0% | 0% | 14% | 10% |
| O=C(NCc1ccccc1)/C(=C/c1cn(-c2ccccc2)nc1-c1ccccc1)CC(=O)c1ccc(Cl)cc1 | 4% | 40% | 23.8% | 60% |
| COc1ccc(C2=C/C(=C\c3cn(-c4ccccc4)nc3-c3ccccc3)C(=O)N2Cc2ccccc2)cc1 | 23% | 0% | 45% | 0% |
